According to ChEMBL document CHEMBL1122462, “Potential antiatherosclerotic agents. 4. [(Functionalized-alkyl)amino]benzoic acid analogues of cetaben” (1983):

Columns and labels:
Rattus norvegicus [1] = test: In vivo sterol lowering activity, dosed as 0.03 % of the diet; type: functional
[2] = biological target: T1, Sterol O-acyltransferase 1 (Rattus norvegicus) (UniProt O70536); test: In vitro inhibitory activity against acyl coenzyme A:cholesterol acyltransferase; parameters: concentration or dose not given beside the values; conditions: concentration not given here
T1 sequence (whole entry): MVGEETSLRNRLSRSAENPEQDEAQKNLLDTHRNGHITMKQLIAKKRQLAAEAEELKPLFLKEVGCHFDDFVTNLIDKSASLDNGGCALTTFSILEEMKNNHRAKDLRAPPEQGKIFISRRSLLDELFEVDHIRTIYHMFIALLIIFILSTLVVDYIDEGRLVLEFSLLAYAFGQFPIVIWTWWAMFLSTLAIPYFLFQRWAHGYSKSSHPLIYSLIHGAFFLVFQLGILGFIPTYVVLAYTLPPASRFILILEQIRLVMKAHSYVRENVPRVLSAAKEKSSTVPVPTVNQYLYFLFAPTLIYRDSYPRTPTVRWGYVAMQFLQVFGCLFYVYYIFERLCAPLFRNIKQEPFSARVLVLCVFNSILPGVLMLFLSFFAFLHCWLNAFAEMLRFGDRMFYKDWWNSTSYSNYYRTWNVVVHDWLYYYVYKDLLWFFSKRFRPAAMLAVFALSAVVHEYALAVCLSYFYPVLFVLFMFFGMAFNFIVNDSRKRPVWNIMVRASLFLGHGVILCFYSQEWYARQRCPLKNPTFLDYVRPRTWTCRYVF

Rattus norvegicus [3] = test: In vivo Triglyceride lowering activity at a dose of 0.10 % of the diet; type: functional
Rattus norvegicus [4] = test: In vivo sterol lowering activity at dose of 0.10 % of the diet; type: functional
Rattus norvegicus [5] = test: In vivo Triglyceride lowering activity at dose as 0.03 % of the diet; type: functional
Rattus norvegicus [6] = test: In vivo Sterol lowering activity at dose as 0.01% of the diet; type: functional
Rattus norvegicus [7] = test: In vivo Triglyceride lowering activity at dose as 0.01 % of the diet; type: functional

Row | SMILES | inhibition [2] | serum sterol level, percent of control (Rattus norvegicus [1]) | serum triglyceride level (% of control) (Rattus norvegicus [3]) | serum sterol level, % of control (Rattus norvegicus [4]) | triglyceride lowering activity (Rattus norvegicus [5]) | serum sterol level, percent of control (Rattus norvegicus [6]) | serum triglyceride level (% of control) (Rattus norvegicus [7])
1 | CCCCCC(=O)CCCCCCCCCCNc1ccc(C(=O)O)cc1 | < 33% | 89% | <42% | <81% | <57% | 93% | <59%
2 | CCCCCCCCCCCCCCCCN(CC(=O)OCC)c1ccc(C(=O)OC)cc1 | 11% | 100% | 104% | 104% | 97% | 106% | 113%
3 | O=C(O)CCCCCCCCCCCCCCCNc1ccc(C(=O)O)cc1 |  | 92% | 96% | 92% | 90% | 101% | 124%
4 | CC(C)(C)CCCCCCCCCCCCCCNc1ccc(C(=O)[O-])cc1.[Na+] |  | <53% | <30% | <44% | <55% | <72% | <66%
5 | C[Si](C)(C)CCCCCCCCCCCNc1ccc(C(=O)[O-])cc1.[Na+] |  | <73% | <46% | <48% | 88% | <81% | 122%
6 | O=C([O-])CCCCCCCCCCCCCCCNc1ccc(C(=O)[O-])cc1.[Na+].[Na+] |  | 102% | 132% | 106% | 97% | 102% | 93%
7 | C[Si](C)(C)CCCNc1ccc(C(=O)[O-])cc1.[Na+] |  | <82% | <77% | <64% | 85% | 87% | 102%
8 | CCCCCCCCCCC(O)CCCCCNc1ccc(C(=O)O)cc1 (centres undefined) |  | 96% | <31% | <86% | <43% | 104% | <66%
9 | C[Si](C)(C)CCCCCCCCCCCNc1ccc(C(=O)O)cc1 |  | <69% | <25% | <44% | <54% | <79% | <67%
10 | CCCCCCCCCC/C(CCCCCNc1ccc(C(=O)O)cc1)=N/O |  | <84% | <31% | <75% | <30% | 86% | <52%
11 | CCCCCCCCCCCCCCCCN(CS(=O)(=O)[O-])c1ccc(C(=O)[O-])cc1.[Na+].[Na+] |  | 91% | 89% | <75% | 95% | 89% | 77%
12 | O=C([O-])c1ccc(NCCCCCCCCCCCCCCCC(F)(F)F)cc1.[Na+] |  | <62% | <21% | <34% | <39% | <75% | <63%

The next lines start with results.

Row | inhibition [2] | SMILES | serum sterol level, percent of control (Rattus norvegicus [1]) | serum triglyceride level (% of control) (Rattus norvegicus [3]) | serum sterol level, % of control (Rattus norvegicus [4]) | triglyceride lowering activity (Rattus norvegicus [5]) | serum sterol level, percent of control (Rattus norvegicus [6]) | serum triglyceride level (% of control) (Rattus norvegicus [7])
13 | 9% | CCOC(=O)c1ccc(NCCCCCCCCCCCCCC(C)C)cc1 | <89% | <61% | <80% | 84% | 92% | 84%
14 | < 40% | CCCCSCCCCCCCCCCCNc1ccc(C(=O)O)cc1 | 91% | <62% | <78% | <71% | 91% | 79%
15 | < 63% | CC(C)CCCCCCCCCCCCCNc1ccc(C(=O)O)cc1 | <76% | <29% | <64% | <68% | <89% | 77%
16 | < 32% | CCOC(=O)c1ccc(NC(=O)CCCCCCCCCCCCCCCBr)cc1 | 93% | 79% | <86% | 94% | 96% | 84%
17 | < 38% | O=C(O)c1ccc(NCCCCCCCCCCCCCCCCS)cc1 | 101% | <40% | 101% | <45% | 96% | 67%
18 | < 73% | Br.CCOC(=O)c1ccc(NCCCCCCCCCCCSC(=N)N)cc1 | 107% | <59% | 98% | <69% | 100% | 85%
19 | 10% | CCOC(=O)c1ccc(NCCCCCCCCCCCCCCCCBr)cc1 | 98% | 100% | 93% | 84% | 99% | 100%
20 | < 51% | CC(C)CCCCCCCCCCCCCCNc1ccc(C(=O)O)cc1 | <67% | <29% | <44% | <50% | <79% | 76%
21 | 7% | CCCCCCCCCCC(N)CCCCCNc1ccc(C(=O)[O-])cc1.[Na+] (centres undefined) | 117% | 120% | 98% | 107% | 100% | 68%
22 | < 24% | CCOC(=O)c1ccc(NCCCCCCCCCCC(F)(F)F)cc1 | 88% | <46% | <87% | <61% | <86% | <74%
